The values that follow come from PubChem BioAssay AID2060510 (Molecular Pharmacology Branch, DTP, NCI, 2025).

The subject of the assay is 439559-082-T-J2-PDC spheroids viability. Put plainly: Anticancer human tumor 439559-082-T-J2-PDC patient-derived colon adenocarcinoma cell line growth inhibition [GQUAD]. The conditions noted are these: for viability, T/C: stronger effect = lower value. From the text: DNA G-quadruplex Stabilizer Agents in Combinations in Complex Spheroids
A high-throughput screen of multi-cell type tumor spheroids was designed to identify active combinations of DNA G-quadruplex stabilizer agents and targeted small molecules. Complex spheroids include a stromal component modeled by human endothelial cells (HUVEC) and fibroblasts modeled by human mesenchymal stem cells (MSCs). The concentration ranges selected for each drug and investigational agent were based upon clinically achievable concentrations if the clinical Cmax of the agent was known.
Compounds. The drugs and investigational agents: pidnarulex (CX-5461; NSC782164), APTO-253 (NSC789042), BRACO-19 (NSC847499), peposertib (NSC802822), ceralasertib (NSC780249), elimusertib (NSC800525), camonsertib (NSC841442), AZD-1390 (NSC803789), olaparib (NSC753686), talazoparib (NSC767125), ART-558 (NSC835418), sotorasib (NSC818433), MRTX-1133 (NSC836407), SN-38 (NSC673596), topotecan (NSC609699), etoposide (NSC141540), doxorubicin (NSC123127), gemcitabine (NSC613327), 5-fluorouracil (NSC19893), paclitaxel (NSC125973), vemurafenib (NSC761431), panobinostat (NSC761190), R-306465 (JNJ-16241199; NSC773264), adavosertib (NSC754352), TP-3654 (NSC805149), carboplatin (NSC241240), KSQ-4279 (NSC840948), and staurosporine (NSC755774) were obtained from the National Cancer Institute (NCI) Developmental Therapeutics Program Chemical Repository (34). The FDA-approved anticancer drug set is available from the NCI Developmental Therapeutics Program. […] The stock solutions were prepared in dimethyl sulfoxide (DMSO, Sigma-Aldrich, St. Louis, MO, cat. D2650) at 800-fold the tested concentration and stored at -70 degrees C prior to their use. All drugs and investigational agents were tested over a range starting from a high concentration at or near the clinical Cmax and decreasing in half-log increments. If the clinical Cmax for an agent had not been determined, the highest concentration tested was 10 microM.
2.3 Cell Culture. All cells were maintained in an incubator at 37 degrees C and 5% CO2 with 95% humidity. The PDC lines were cultured according to standard operating procedures established by the NCI PDMR. All PDCs were thawed and cultured in Matrigel-coated flasks prepared with a working solution of 1X Ham's F-12 nutrient mix, without supplementation (Invitrogen, cat. 11765054), 100 U/mL penicillin-streptomycin (Invitrogen, cat. 15140122), and 2.5% Matrigel (Corning Inc., cat. 354248) for the first three passages. The 857933-349-R-J2-PDC line was cultured in 6C/Colon 1B media, which includes advanced DMEM/F-12 (Thermo Fisher Scientific, cat. 12634028), 10 mM HEPES (Thermo Fisher Scientific, cat. 15630080), 1X GlutaMAX supplement (Thermo Fisher Scientific, cat. 35050061), 0.1 mg/mL primocin (InvivoGen, cat. ant-pm-2), 10% defined fetal bovine serum, heat inactivated (HyClone Laboratories Inc., cat. SH30070.03HI), 50% L-WRN conditioned media (ATCC, cat. CRL-3276), 1.25 mM N-Acetyl-L-cysteine (Sigma-Aldrich, cat. A9165), 10 mM nicotinamide (Sigma-Aldrich, cat. N0636), 1X B-27 supplement (Thermo Fisher Scientific, cat. 17504044), 1X N-2 supplement (Thermo Fisher Scientific, cat. 17502048), 10 microM Y-27632 dihydrochloride (Tocris Bioscience, cat. 1254), and 50 ng/mL human EGF recombinant protein (Thermo Fisher Scientific, cat. PHG0311). The 485176-168-R4-J1-PDC line was cultured in Panc media, which includes all 6C/Colon 1B media components plus 100 ng/mL human FGF-10 (Thermo Fisher Scientific, cat. 100-26), 500 nM SB-431542 (Selleckchem, cat. S1067), and gastrin (Tocris, cat. 3006).
[…]

Molecules are shown by their SMILES. Where “and” joins values, the source holds several entries; their conditions need not be identical. Equal entries are not always repeated.
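Note: spheroids exposed to the agents for 7 days before readout.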
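Throughout, for viability, T/C: percent of luminescence signal in DMSO vehicle wells taken as 100% viability.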

Consider `C#Cc1c(F)ccc2cc(O)cc(-c3ncc4c(N5CC6CCC(C5)N6)nc(OCC56CCCN5CC(F)C6)nc4c3F)c12` (stereo not drawn), for which the viability, T/C is, setting by setting: (compound 0.0316 µM) 96.1% and 98.3% and 86.1%; (compound 0.1 µM) 86.3% and 94.2% and 72.7%; (compound 0.316 µM) 76.8% and 90.2% and 62.7%; (compound 1 µM) 75.4% and 78.3% and 59.6%; (compound 3.16 µM) 60.6% and 9.56% and 49.7%; (compound 10 µM) 49% and 15.8% and 45.7%. Also, the IC50 (curve of compound) was 9820 nM and 1640 nM and 3590 nM.

As to `C=CC(=O)N1CCN(c2nc(=O)n(-c3c(C)ccnc3C(C)C)c3nc(-c4c(O)cccc4F)c(F)cc23)C(C)C1` (stereo not drawn), the viability, T/C is, setting by setting: (compound 0.0316 µM) 101% (2×) and 96.5%; (compound 0.1 µM) 101% and 91.7% and 89.6%; (compound 0.316 µM) 94.3% and 91.1% and 108%; (compound 1 µM) 110% and 96.3% and 112%; (compound 3.16 µM) 99% and 108% and 107%; (compound 10 µM) 98.8% and 96.6% and 105%. Also, the 50% inhibitory concentration (IC50) (curve of compound) is greater than 10000 nM.

As for `CC(=O)O[C@H]1C(=O)[C@@]2(C)[C@H]([C@H](OC(=O)c3ccccc3)[C@]3(O)C[C@H](OC(=O)[C@H](O)[C@@H](NC(=O)c4ccccc4)c4ccccc4)C(C)=C1C3(C)C)[C@]1(OC(C)=O)CO[C@@H]1C[C@@H]2O`, the viability, T/C (compound 0.0316 µM) was 97.3% and 78.7% and 84.1%; the viability, T/C (compound 0.1 µM) is 75.3% (2×) and 83.1%; the viability, T/C (compound 0.316 µM) is 55.6% and 69.5% and 90.7%. The half-maximal inhibitory concentration (IC50) (curve of compound) was 332 nM and 2180 nM and 2490 nM.

With `CC(C)n1c(=O)n(C)c2cnc3cc(F)c(-c4ccc(OCCCN5CCCCC5)nc4)cc3c21`, the viability, T/C by setting is: (compound 0.0316 µM) 110% and 92.9% and 102%; (compound 0.1 µM) 103% and 115% and 91.5%; (compound 0.316 µM) 117% and 111% and 110%; (compound 1 µM) 107% and 114% and 98.3%; (compound 3.16 µM) 116% and 117% and 110%; (compound 10 µM) 95.4% and 101% and 102%. Moreover, the 50% inhibitory concentration (IC50) (curve of compound) is greater than 10000 nM.

Turning to `CC1COCCN1c1cc(-c2ccnn2C)c2ccnc(-c3ccn[nH]3)c2n1` (stereo not drawn), the viability, T/C (compound 0.0316 µM) was 97.7% and 97.6% and 93.5%; the viability, T/C (compound 0.1 µM) is 80.6% and 68.1% and 73.8%; the viability, T/C (compound 0.316 µM) was 46.8% and 35.7% and 39.2%; the viability, T/C (compound 1 µM) is 34.3% and 35.7% and 31.6%; the viability, T/C (compound 3.16 µM) was 37.7% and 30.7% and 31.6%; the viability, T/C (compound 10 µM) was 33.5% and 28.8% and 34%. For the same molecule, the IC50 (curve of compound) is 280 nM and 192 nM and 220 nM.

With `CC1COCCN1c1cc(C2(O)CC3CCC(C2)O3)c2cnn(-c3ccn[nH]3)c2n1` (stereo not drawn), the viability, T/C (compound 0.0316 µM) was 88.9% and 93.8% and 110%; the viability, T/C (compound 0.1 µM) is 94.8% and 93.7% and 78.8%; the viability, T/C (compound 0.316 µM) is 68.1% and 75.7% and 73.3%; the viability, T/C (compound 1 µM) is 52.4% and 55.8% and 50.7%; the viability, T/C (compound 3.16 µM) is 39% and 40.9% and 32.5%; the viability, T/C (compound 10 µM) was 33.2% and 39.8% and 28.5%. The IC50 (curve of compound) is 1030 nM and 1520 nM.

On to `CC1COCCN1c1cc(C2(S(C)(=N)=O)CC2)nc(-c2ccnc3[nH]ccc23)n1` (stereo not drawn), for which the viability, T/C is 97.7% and 98.8% and 96.5% (compound 0.0316 µM); 111% and 89.2% and 102% (compound 0.1 µM); 93.4% and 106% and 88.7% (compound 0.316 µM); 101% and 86.2% and 94% (compound 1 µM); 92.3% and 87.4% and 80.1% (compound 3.16 µM); 68.4% and 57.7% and 60.7% (compound 10 µM). Moreover, where the note is “curve of compound”, the IC50 was greater than 10000 nM.

Regarding `CC[C@@]1(O)C(=O)OCc2c1cc1n(c2=O)Cc2cc3c(CN(C)C)c(O)ccc3nc2-1`, the viability, T/C was 95.3% and 92.3% and 106% (compound 0.000999 µM); 105% and 96.2% and 94.6% (compound 0.00316 µM); 96% and 97.9% and 95.6% (compound 0.00999 µM); 84.6% and 98% and 89.7% (compound 0.0316 µM); 88.7% and 87.6% and 101% (compound 0.0999 µM); 79% and 81.7% and 75.3% (compound 0.316 µM). Besides, the IC50 (curve of compound) was greater than 316 nM.

In the case of `CCc1c2c(nc3ccc(O)cc13)-c1cc3c(c(=O)n1C2)COC(=O)[C@]3(O)CC`, the viability, T/C was 92.9% and 101% and 105% (compound 0.000999 µM); 88.5% and 90.5% and 87.7% (compound 0.00316 µM); 78.4% and 78.2% and 84.3% (compound 0.00999 µM); 71.1% and 81.8% and 69.5% (compound 0.0316 µM); 61.7% and 59.3% and 49.4% (compound 0.0999 µM); 47.6% and 44.7% and 36.1% (compound 0.316 µM). Also, where the note is “curve of compound”, the concentration for half-maximal inhibition (IC50) is 272 nM and 229 nM and 115 nM.

`CN(C)c1ccc(Nc2c3ccc(NC(=O)CCN4CCCC4)cc3nc3cc(NC(=O)CCN4CCCC4)ccc23)cc1`: the viability, T/C is, setting by setting: (compound 0.0316 µM) 103% [middle of 12 runs]; (compound 0.1 µM) 99.9% [middle of 12 runs]; (compound 0.316 µM) 101% [middle of 12 runs]; (compound 3.16 µM) 104% [middle of 12 runs]; (compound 10 µM) 101% [middle of 12 runs]. In addition, the IC50 (compound alone, run of 04/22/2024) was greater than 10000 nM.

In the case of `COc1cc(C2c3cc4c(cc3C(OC3OC5COC(C)OC5C(O)C3O)C3COC(=O)C23)OCO4)cc(OC)c1O` (stereo not drawn), the viability, T/C was 96.1% and 96% and 96.2% (compound 0.0316 µM); 93% and 81.9% and 90.7% (compound 0.1 µM); 92.8% and 94.6% and 101% (compound 0.316 µM); 98.3% and 89.7% and 95% (compound 1 µM); 90.2% and 80.1% and 81.5% (compound 3.16 µM); 62.3% and 61% and 68.8% (compound 10 µM). For the same molecule, the IC50 (curve of compound) was greater than 10000 nM.

Broadly, the viability, T/C is the result in the treated group divided by that in the control group, in per cent. The term IC50 denotes the concentration at which inhibition is half-maximal.
